Data from ChEMBL document CHEMBL1201862, “PubChem BioAssay data set” (2004).
The source made the active and inactive calls.

Key:
Protein RecA = target: T1, Protein RecA (Mycobacterium tuberculosis, UniProt P9WHJ3); assay: Fluorescence Cell-Free Homogeneous Dose Retest to Identify Inhibitors of RecA-Intein Splicing Activity. [Related pubchem assays (depositor defined):AID2097, AID2223, AID489010, AID492950]; assay type: functional
T1 sequence (P9WHJ3 whole entry): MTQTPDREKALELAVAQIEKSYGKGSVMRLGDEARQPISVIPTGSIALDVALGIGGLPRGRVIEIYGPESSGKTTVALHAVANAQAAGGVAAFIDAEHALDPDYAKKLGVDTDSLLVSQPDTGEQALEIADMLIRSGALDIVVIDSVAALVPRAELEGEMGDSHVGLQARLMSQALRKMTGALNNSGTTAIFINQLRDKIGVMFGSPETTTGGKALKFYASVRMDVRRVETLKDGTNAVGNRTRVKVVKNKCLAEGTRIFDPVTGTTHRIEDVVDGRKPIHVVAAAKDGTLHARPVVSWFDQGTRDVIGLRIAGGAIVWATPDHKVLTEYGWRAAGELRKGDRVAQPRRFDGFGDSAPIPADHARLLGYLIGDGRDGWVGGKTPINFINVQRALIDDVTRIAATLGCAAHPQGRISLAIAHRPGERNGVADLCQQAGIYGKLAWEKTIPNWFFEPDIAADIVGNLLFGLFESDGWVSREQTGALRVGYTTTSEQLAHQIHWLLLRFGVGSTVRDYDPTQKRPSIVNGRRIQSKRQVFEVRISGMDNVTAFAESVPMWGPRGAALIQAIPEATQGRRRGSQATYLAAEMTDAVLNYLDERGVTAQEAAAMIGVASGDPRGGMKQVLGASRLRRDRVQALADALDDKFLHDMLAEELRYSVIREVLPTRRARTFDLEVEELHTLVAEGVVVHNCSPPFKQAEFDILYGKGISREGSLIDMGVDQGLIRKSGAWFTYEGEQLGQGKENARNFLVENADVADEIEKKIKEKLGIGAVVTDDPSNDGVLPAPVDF

[1] = target: Neurotensin receptor type 1 (Homo sapiens, UniProt P30989); assay type: functional;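 further: Image-based confirmatory dose-response assay measuring agonist activity at NTR1; NTR1-expressing U2OS osteosarcoma cells imaged for beta-arrestin GFP spot formation; agonist potency where compounds increase beta-arrestin recruitment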
Chain of Neurotensin receptor type 1 (P30989 whole entry): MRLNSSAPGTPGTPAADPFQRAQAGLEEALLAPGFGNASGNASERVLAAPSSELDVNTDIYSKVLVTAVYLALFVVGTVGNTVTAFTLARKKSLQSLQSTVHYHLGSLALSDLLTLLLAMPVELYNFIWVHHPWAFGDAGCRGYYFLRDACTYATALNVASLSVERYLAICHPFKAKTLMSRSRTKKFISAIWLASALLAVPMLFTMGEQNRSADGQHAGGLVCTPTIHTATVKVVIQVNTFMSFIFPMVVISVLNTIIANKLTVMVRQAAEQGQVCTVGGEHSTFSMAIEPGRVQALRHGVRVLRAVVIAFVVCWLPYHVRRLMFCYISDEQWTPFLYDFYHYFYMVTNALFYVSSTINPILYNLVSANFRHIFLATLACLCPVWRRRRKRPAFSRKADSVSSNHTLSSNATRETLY

[2] = reduction of Shn3 3'UTR-driven luciferase in osteoblasts – cell-based, Clone20 osteoblasts, firefly luciferase, cherry-picked, dose response (AID 624132); assay type: functional;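 further: firefly luciferase luminescence from reporter carrying the Shn3 3'UTR in osteoblasts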
[3] = non-specific 3'UTR reporter inhibition in Clone20-Shn3RL – cell-based, Renilla luciferase, cherry-picked, counter-screen for Shn3 inhibitor project, dose response (AID 624133); assay type: functional
[4] = loss of viability in HepG2 cells – cell-based, CellTiter-Glo, cherry-picked, cytotoxicity control for Shn3 inhibitor project, dose response (AID 624134); assay type: functional
[5] = target: T2, Replicative DNA helicase DnaB (Mycobacterium tuberculosis, UniProt P9WMR3); assay: DnaB intein splicing inhibitors, dose response, biochemical, cell-free fluorescence (AID 449749); assay type: functional
T2 sequence (P9WMR3 whole entry): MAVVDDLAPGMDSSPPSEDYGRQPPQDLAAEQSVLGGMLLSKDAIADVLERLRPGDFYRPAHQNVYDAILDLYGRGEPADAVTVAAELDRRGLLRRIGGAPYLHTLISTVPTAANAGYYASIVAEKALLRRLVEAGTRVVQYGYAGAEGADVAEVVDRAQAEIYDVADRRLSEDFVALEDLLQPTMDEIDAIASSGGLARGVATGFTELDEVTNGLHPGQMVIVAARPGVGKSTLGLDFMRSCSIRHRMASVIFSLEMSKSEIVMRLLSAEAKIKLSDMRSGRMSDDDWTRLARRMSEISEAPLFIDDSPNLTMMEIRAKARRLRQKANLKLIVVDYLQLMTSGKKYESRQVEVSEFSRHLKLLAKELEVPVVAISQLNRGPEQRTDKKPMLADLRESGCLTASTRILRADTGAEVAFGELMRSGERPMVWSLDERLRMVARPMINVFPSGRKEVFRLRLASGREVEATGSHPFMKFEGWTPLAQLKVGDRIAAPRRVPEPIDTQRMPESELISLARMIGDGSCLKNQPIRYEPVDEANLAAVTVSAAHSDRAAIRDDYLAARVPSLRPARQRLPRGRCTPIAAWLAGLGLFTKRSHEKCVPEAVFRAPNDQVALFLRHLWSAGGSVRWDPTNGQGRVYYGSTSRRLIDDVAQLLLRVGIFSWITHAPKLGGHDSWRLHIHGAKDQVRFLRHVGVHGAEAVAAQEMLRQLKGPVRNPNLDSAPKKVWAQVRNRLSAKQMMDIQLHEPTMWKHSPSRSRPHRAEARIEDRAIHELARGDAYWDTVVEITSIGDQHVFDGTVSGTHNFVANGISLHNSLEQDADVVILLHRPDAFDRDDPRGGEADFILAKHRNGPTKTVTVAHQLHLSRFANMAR

[6] = target: Eukaryotic translation initiation factor 4H (Homo sapiens, UniProt Q15056); assay: eIF4H binding inhibition – biochemical, uHTS, fluorescence polarization, translation initiation inhibitor project, primary screen (AID 2012)
[7] = target: Polyadenylate-binding protein 1 (Homo sapiens, UniProt P11940); assay: blockers of PABP interaction with poly(A) – biochemical, fluorescence polarization, […] (AID 2014)
Chain of Polyadenylate-binding protein 1 (P11940 whole entry): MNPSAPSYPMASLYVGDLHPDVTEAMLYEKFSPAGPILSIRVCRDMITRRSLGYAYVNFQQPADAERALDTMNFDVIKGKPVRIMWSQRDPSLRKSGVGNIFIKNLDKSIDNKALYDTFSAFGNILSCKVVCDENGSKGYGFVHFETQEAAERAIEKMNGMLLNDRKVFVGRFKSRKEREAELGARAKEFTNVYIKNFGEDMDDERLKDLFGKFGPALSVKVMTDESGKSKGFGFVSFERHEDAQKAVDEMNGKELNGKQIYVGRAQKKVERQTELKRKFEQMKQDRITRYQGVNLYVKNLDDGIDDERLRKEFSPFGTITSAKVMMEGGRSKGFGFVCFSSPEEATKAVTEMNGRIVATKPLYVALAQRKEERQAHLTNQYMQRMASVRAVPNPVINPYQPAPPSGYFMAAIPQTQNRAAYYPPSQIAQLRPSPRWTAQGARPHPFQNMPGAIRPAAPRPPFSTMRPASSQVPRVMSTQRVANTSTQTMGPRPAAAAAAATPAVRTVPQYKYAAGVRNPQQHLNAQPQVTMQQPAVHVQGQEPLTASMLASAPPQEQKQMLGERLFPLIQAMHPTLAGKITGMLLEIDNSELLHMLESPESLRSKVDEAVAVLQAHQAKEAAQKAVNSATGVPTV

X-box-binding protein 1 = X-box-binding protein 1 (Homo sapiens, UniProt P17861); assay type: functional, Cricetulus griseus;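 further: confirmatory dose-response counter-screen serving a CHOP assay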
Chain of X-box-binding protein 1 (P17861 whole entry): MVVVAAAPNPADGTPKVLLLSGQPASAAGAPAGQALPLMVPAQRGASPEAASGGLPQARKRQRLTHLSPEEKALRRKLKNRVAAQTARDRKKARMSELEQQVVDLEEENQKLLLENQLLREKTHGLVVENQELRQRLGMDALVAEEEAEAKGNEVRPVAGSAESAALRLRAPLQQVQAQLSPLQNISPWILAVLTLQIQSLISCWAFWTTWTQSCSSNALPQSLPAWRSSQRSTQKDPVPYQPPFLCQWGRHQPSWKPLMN

J774.A1 = assay: Confirmation of image-based Screening Assay for Inhibitors of Phagocytosis. [Related pubchem assays (depositor defined):AID1029, AID1643]; assay type: functional, cell-based; conditions: Mus musculus
[8] = HEK-293T viability loss after treatment – luminescence, T-cell screen hits, cytotoxicity control for TCR NF-kB inhibitor project, dose response (AID 489026); assay type: functional, cell-based;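 further: cells exposed to compound about 14 hours before the viability readout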
NS3 = NS3 (Hepatitis C virus, UniProt A3EZJ3); assay: PubChem AID 2173; design: species or system Hepacivirus hominis
Chain of NS3 (A3EZJ3 whole entry): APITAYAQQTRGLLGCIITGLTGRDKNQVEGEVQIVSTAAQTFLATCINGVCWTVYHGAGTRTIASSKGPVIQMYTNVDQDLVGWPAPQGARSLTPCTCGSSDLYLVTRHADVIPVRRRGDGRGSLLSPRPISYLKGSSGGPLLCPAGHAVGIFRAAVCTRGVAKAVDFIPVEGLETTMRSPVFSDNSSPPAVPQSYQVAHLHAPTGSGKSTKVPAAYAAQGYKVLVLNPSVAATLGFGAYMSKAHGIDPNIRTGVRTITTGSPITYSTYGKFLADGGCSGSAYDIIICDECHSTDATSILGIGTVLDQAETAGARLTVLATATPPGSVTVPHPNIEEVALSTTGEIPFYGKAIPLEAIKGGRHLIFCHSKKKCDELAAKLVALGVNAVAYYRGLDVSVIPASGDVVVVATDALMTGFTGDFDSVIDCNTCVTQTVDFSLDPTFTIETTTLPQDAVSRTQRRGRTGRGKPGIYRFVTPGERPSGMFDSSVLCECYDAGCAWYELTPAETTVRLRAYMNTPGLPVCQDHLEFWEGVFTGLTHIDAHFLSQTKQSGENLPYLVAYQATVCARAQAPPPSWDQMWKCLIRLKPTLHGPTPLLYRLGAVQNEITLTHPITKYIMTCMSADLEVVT

[9] = target: Lysosomal acid glucosylceramidase (Homo sapiens, UniProt P04062); assay: Dose response cell-based high throughput screening assay to identify enhancers of beta-glucosidase activity. [Related pubchem assays: 784 ]; assay type: functional
Chain of Lysosomal acid glucosylceramidase (P04062 whole entry): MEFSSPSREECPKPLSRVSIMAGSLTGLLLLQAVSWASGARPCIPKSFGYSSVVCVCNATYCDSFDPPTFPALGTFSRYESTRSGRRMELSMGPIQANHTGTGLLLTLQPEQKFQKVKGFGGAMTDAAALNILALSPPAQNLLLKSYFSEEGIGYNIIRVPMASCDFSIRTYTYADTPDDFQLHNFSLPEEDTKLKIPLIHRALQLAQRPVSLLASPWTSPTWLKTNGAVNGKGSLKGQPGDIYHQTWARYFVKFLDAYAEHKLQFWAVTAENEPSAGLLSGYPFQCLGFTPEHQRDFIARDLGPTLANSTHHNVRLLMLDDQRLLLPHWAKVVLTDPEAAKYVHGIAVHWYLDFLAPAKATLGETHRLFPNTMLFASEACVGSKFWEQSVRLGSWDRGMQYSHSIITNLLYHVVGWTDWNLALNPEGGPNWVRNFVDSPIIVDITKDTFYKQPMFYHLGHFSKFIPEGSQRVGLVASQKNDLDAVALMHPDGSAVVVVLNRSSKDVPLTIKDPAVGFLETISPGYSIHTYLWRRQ

## CC(CCc1ccccc1)NC(=O)COC(=O)c1ccc(S(C)(=O)=O)c([N+](=O)[O-])c1 (stereo not drawn)
Protein RecA
  EC50: 3.7 µM (active)
[1]
  EC50: 9.29 µM (active)
[2]
  AC50: 3.34 µM (active)
[3]
  AC50: 9.93 µM (active)
[4]
  AC50: 39.4 µM (active)
[5]
  AC50: 10 µM (active)

## O=C(NCC(=O)N1CCN(c2ccccc2O)CC1)c1ccc2c(c1)OCO2
[6]
  IC50: 28.2 µM (active)
[7]
  IC50: > 100 µM (inactive)

## CCC(C)Sc1nc2c(c(=O)[nH]c(=O)n2C)n1Cc1ccc(Cl)cc1 (stereo not drawn)
X-box-binding protein 1
  Absolute IC50 (XBP1): 10 µM

## CC(C)Oc1ccccc1C1CC(=O)Nc2cc3c(cc21)OCO3 (stereo not drawn)
J774.A1
  IC50: > 25 µM (inactive)
[8]
  IC50: > 80 µM (inactive)

## Cc1cc2cc(C(c3nnnn3Cc3ccco3)N3CCc4ccccc4C3)c(O)nc2cc1C (stereo not drawn)
NS3
  IC50: > 109 µM (not active)

## CC(OC(=O)c1nsc(Cl)c1Cl)C(=O)NCc1cccs1 (stereo not drawn)
[9]
  EC50: > 50 µM (not active)
